Read-outs that look alike come from different tables or passages of the source.
Legend:
MDA-MB-231 [1] = assay: Mouse hollow fiber model, TNBC (MDA-MB-231); assay type: in vivo; details: TNBC MDA-MB-231 hollow fibers s.c. in mice; 50 mg/kg orally once daily for five days; modified MTT; vs Day 5 vehicle
Experimental: (§1) The in vivo efficacy of test compounds (e.g., 6-(2,4-dimethylthiazol-5-yl)-2-((1-(pyrido[2,3-d]pyrimidin-4-yl)piperidin-4-yl)methyl)pyridazin-3(2H)-one) on cancer cells is determined using the mouse hollow fiber model established at the National Cancer Institute (NCI). Triple negative breast cancer (TNBC) (MDA-MB-231), pancreatic cancer (Mia-PaCa-2), and liver cancer (HepG2) cells are added to differently colored hollow fibers (KrosoFlo@Implant membrane, Green: Lot No.: 20051617, Blue: Lot No.: 20008858, White: Lot No.: 20051615) and sealed at both ends. Three hollow fibers each containing a different cancer line are surgically implanted subcutaneously into both the left and right flanks of mice (total of six hollow fibers per mouse). Drug treatment is initiated on Day 0, three days post implantation of fibers. Each treatment group has 2 mice (4 hollow fibers per cancer type): Group 1: Vehicle control; Group 2: Gemcitabine control dosed intraperitoneally (i.p.) at 50 mg/kg once every three days; Group 3: Test compound dosed orally at 50 mg/kg once daily for five days. […] Mean % net cell growth is calculated using the formula [(mean OD(day5)−mean OD(day0))/(mean OD(day0))×100%]. Mean % inhibition of cell growth due to treatment is calculated relative to the mean % net cell growth of the Day 5 vehicle control for the particular cancer line.

Mia-PaCa-2 = assay: Mouse hollow fiber model, pancreatic cancer (Mia-PaCa-2); assay type: in vivo; details: pancreatic cancer Mia-PaCa-2 hollow fibers s.c. in mice; 50 mg/kg orally once daily for five days; modified MTT; vs Day 5 vehicle
Experimental: as §1

HepG2 = assay: Mouse hollow fiber model, liver cancer (HepG2); assay type: in vivo; details: liver cancer HepG2 hollow fibers s.c. in mice; 50 mg/kg orally once daily for five days; modified MTT; vs Day 5 vehicle
Experimental: as §1

[2] = Body weight and clinical signs in the mouse hollow fiber study; assay type: in vivo; details: mice, 50 mg/kg orally once daily for 5 days
Experimental: as §1, with “line. […]” for “line.”

MDA-MB-231 [3] = assay: Mouse xenograft model of TNBC (MDA-MB-231), tumor volume and histopathology; assay type: in vivo
Experimental: (§2) The in vivo efficacy of test compounds (e.g., 6-(2,4-dimethylthiazol-5-yl)-2-((1-(pyrido[2,3-d]pyrimidin-4-yl)piperidin-4-yl)methyl)pyridazin-3(2H)-one) on cancer cells is determined using a mouse xenograft model of TNBC (MDA-MB-231). 5×10^6 MDA-MB-231 cells (in 0.2 ml of FBS-free medium containing 50% Matrigel) are injected into the subcutaneous tissue of each mouse. Treatment is initiated (Day 0) when the average tumor volume reaches 100 mm^3. Tumor bearing mice are treated with vehicle and different doses of test compound (15 mg/kg, 35 mg/kg, 50 mg/kg, and 100 mg/kg) orally, once daily, for 3 weeks. Tumor volumes (mm^3) are measured post-implantation of cells once every 2-3 days throughout the study. At the end of the treatment period, a portion of the tumor tissue is excised and homogenized to analyze the levels of MYC biomarker using ELISA. Blood samples are collected from mice treated with test compound 8 hours after the final dose.

[4] = Plasma concentration of test compound in xenograft mice; assay type: in vivo, mouse; details: for concentration at 8 h: mouse, plasma, oral, tumor bearing mice, read-out: Test compound concentrations in plasma 8 h after last dose, Mean ± SD
Experimental: as §2

MYC = MYC biomarker in tumor homogenate by ELISA, xenograft mice; assay type: in vivo, mouse; details: for MYC protein levels in tumor homogenate, Mean ± SD: ELISA, vehicle control 41.93 ± 5.38
Experimental: as §2

[5] = Body weight and clinical signs in the mouse xenograft study; assay type: in vivo; details: 15-100 mg/kg orally once daily for 3 weeks, throughout the study
Experimental: as §2

[6] = 15-100 mg/kg orally once daily for 3 weeks
[7] = 15 mg/kg orally once daily for 3 weeks
[8] = 35 mg/kg orally once daily for 3 weeks
[9] = 50 mg/kg orally once daily for 3 weeks
[10] = 100 mg/kg orally once daily for 3 weeks

Cc1nc(C)c(-c2ccc(=O)n(CC3CCN(c4ncnc5ncccc45)CC3)n2)s1 [test compound, 6-(2,4-dimethylthiazol-5-yl)-2-((1-(pyrido[2,3-d]pyrimidin-4-yl)piperidin-4-yl)methyl)pyridazin-3(2H)-one]
growth inhibition (mean % inhibition of cell growth) (MDA-MB-231 [1]): 88.2% | growth inhibition (mean % inhibition of cell growth) (Mia-PaCa-2): 63.0% | growth inhibition (mean % inhibition of cell growth) (HepG2): 28.1% | changes in body weight versus the vehicle-treated group [2]: no significant changes | Tumor volume, Mean (MDA-MB-231 [3]; 15 mg/kg orally once daily, Day 0): 93 mm^3 | Tumor volume, Mean (MDA-MB-231 [3]; 15 mg/kg orally once daily, Day 2): 137 mm^3 | Tumor volume, Mean (MDA-MB-231 [3]; 15 mg/kg orally once daily, Day 5): 212 mm^3 | Tumor volume, Mean (MDA-MB-231 [3]; 15 mg/kg orally once daily, Day 8): 330 mm^3 | Tumor volume, Mean (MDA-MB-231 [3]; 15 mg/kg orally once daily, Day 10): 435 mm^3 | Tumor volume, Mean (MDA-MB-231 [3]; 15 mg/kg orally once daily, Day 12): 534 mm^3 | Tumor volume, Mean (MDA-MB-231 [3]; 15 mg/kg orally once daily, Day 14): 749 mm^3 | Tumor volume, Mean (MDA-MB-231 [3]; 15 mg/kg orally once daily, Day 16): 921 mm^3 | Tumor volume, Mean (MDA-MB-231 [3]; 15 mg/kg orally once daily, Day 19): 1157 mm^3 | Tumor volume, Mean (MDA-MB-231 [3]; 15 mg/kg orally once daily, Day 21): 1494 mm^3 | Tumor volume, Mean (MDA-MB-231 [3]; 35 mg/kg orally once daily, Day 0): 92 mm^3 | Tumor volume, Mean (MDA-MB-231 [3]; 35 mg/kg orally once daily, Day 2): 129 mm^3 | Tumor volume, Mean (MDA-MB-231 [3]; 35 mg/kg orally once daily, Day 5): 191 mm^3 | Tumor volume, Mean (MDA-MB-231 [3]; 35 mg/kg orally once daily, Day 8): 307 mm^3 | Tumor volume, Mean (MDA-MB-231 [3]; 35 mg/kg orally once daily, Day 10): 390 mm^3 | Tumor volume, Mean (MDA-MB-231 [3]; 35 mg/kg orally once daily, Day 12): 485 mm^3 | Tumor volume, Mean (MDA-MB-231 [3]; 35 mg/kg orally once daily, Day 14): 739 mm^3 | Tumor volume, Mean (MDA-MB-231 [3]; 35 mg/kg orally once daily, Day 16): 897 mm^3 | Tumor volume, Mean (MDA-MB-231 [3]; 35 mg/kg orally once daily, Day 19): 1101 mm^3 | Tumor volume, Mean (MDA-MB-231 [3]; 35 mg/kg orally once daily, Day 21): 1459 mm^3 | Tumor volume, Mean (MDA-MB-231 [3]; 50 mg/kg orally once daily, Day 0): 94 mm^3 | Tumor volume, Mean (MDA-MB-231 [3]; 50 mg/kg orally once daily, Day 2): 123 mm^3 | Tumor volume, Mean (MDA-MB-231 [3]; 50 mg/kg orally once daily, Day 5): 191 mm^3 | Tumor volume, Mean (MDA-MB-231 [3]; 50 mg/kg orally once daily, Day 8): 295 mm^3 | Tumor volume, Mean (MDA-MB-231 [3]; 50 mg/kg orally once daily, Day 10): 368 mm^3 | Tumor volume, Mean (MDA-MB-231 [3]; 50 mg/kg orally once daily, Day 12): 463 mm^3 | Tumor volume, Mean (MDA-MB-231 [3]; 50 mg/kg orally once daily, Day 14): 716 mm^3 | Tumor volume, Mean (MDA-MB-231 [3]; 50 mg/kg orally once daily, Day 16): 875 mm^3 | Tumor volume, Mean (MDA-MB-231 [3]; 50 mg/kg orally once daily, Day 19): 1078 mm^3 | Tumor volume, Mean (MDA-MB-231 [3]; 50 mg/kg orally once daily, Day 21): 1397 mm^3 | Tumor volume, Mean (MDA-MB-231 [3]; 100 mg/kg orally once daily, Day 0): 88 mm^3 | Tumor volume, Mean (MDA-MB-231 [3]; 100 mg/kg orally once daily, Day 2): 126 mm^3 | Tumor volume, Mean (MDA-MB-231 [3]; 100 mg/kg orally once daily, Day 5): 186 mm^3 | Tumor volume, Mean (MDA-MB-231 [3]; 100 mg/kg orally once daily, Day 8): 290 mm^3 | Tumor volume, Mean (MDA-MB-231 [3]; 100 mg/kg orally once daily, Day 10): 363 mm^3 | Tumor volume, Mean (MDA-MB-231 [3]; 100 mg/kg orally once daily, Day 12): 458 mm^3 | Tumor volume, Mean (MDA-MB-231 [3]; 100 mg/kg orally once daily, Day 14): 652 mm^3 | Tumor volume, Mean (MDA-MB-231 [3]; 100 mg/kg orally once daily, Day 16): 782 mm^3 | Tumor volume, Mean (MDA-MB-231 [3]; 100 mg/kg orally once daily, Day 19): 933 mm^3 | Tumor volume, Mean (MDA-MB-231 [3]; 100 mg/kg orally once daily, Day 21): 1158 mm^3 | Histopathology of tumors compared to the vehicle (MDA-MB-231 [3]; [6]): dose-dependent decrease in tumor cells, increase in necrosis and decrease in blood vessel formation | mean tumor volumes compared to the vehicle control on day 21 (MDA-MB-231 [3]; [6]): dose-dependent decreases | concentrations of test compound in the plasma, trend with dose [4, 6]: dose-dependent increases | concentration at 8 h [4, 7]: 10.3 ± 1.7 ng/mL | concentration at 8 h [4, 8]: 42.6 ± 29.1 ng/mL | concentration at 8 h [4, 9]: 59.4 ± 21.9 ng/mL | concentration at 8 h [4, 10]: 230 ± 111 ng/mL | MYC protein levels in tumor homogenate, Mean ± SD (MYC; [7]): 35.70 ± 2.45 ng/mg tumor homogenate | MYC protein levels in tumor homogenate, Mean ± SD (MYC; [8]): 29.55 ± 2.93 ng/mg tumor homogenate | MYC protein levels in tumor homogenate, Mean ± SD (MYC; [9]): 29.11 ± 4.66 ng/mg tumor homogenate | MYC protein levels in tumor homogenate, Mean ± SD (MYC; [10]): 23.53 ± 4.28 ng/mg tumor homogenate | MYC biomarker levels in the tumor, trend with dose (MYC; [6]): dose-dependent decreases | Body weight and clinical signs of animals [5]: apparently normal
